Structures are written as SMILES. Square brackets hold non-standard residues; d marks the D form. Peptide text beside a SMILES is read from it. * marks the point of attachment. PEG12 = NCCOCCOCCOCCOCCOCCOCCOCCOCCOCCOCCOCCOCCC(=O)O; Palmitoyl = CCCCCCCCCCCCCCCC(=O)*; Dap = NC[C@H](N)C(=O)O

The test system of assay [1] is C57/B16J mice. Kind of assay: Serum iron assay in mice after peptide administration. Type of assay: in vivo. To be noted: i.p., 4 hours.
Protocol: Serum iron assay. The decrease in serum iron after peptide administration is the principal measure of hepcidin activity. Thus, as provided herein, the hepcidin activity of selected peptides of the present invention were assayed in vivo by measuring serum iron in test subjects. […] Two weeks before the experiment, the mice were switched to a diet containing about 2-4 ppm iron (Harlan Teklad, Indianapolis, Ind.) in order to suppress endogenous hepcidin. Peptide stocks were diluted to desired concentrations in sterile phosphate buffered saline (PBS) or other diluents as described next. […] Mice were sacrificed 4 hours later, blood was collected by cardiac puncture, and serum was separated using MICROTAINER tubes (Becton Dickinson, Franklin Lakes, N.J.). Serum iron was determined by using a colorimetric assay (Diagnostic Chemicals, Oxford, Conn.), which was modified for the microplate format so that 10 μl serum was used per measurement. The results were expressed as the percentage of decrease in serum iron when compared with the average value of serum iron levels in PBS-treated mice.
Assay [2] has as its target T1, ferroportin fused to green fluorescent protein (ECR293/Fpn-GFP cells) (Mus musculus, UniProt Q9JHI9).
T1 sequence (Q9JHI9 1-570): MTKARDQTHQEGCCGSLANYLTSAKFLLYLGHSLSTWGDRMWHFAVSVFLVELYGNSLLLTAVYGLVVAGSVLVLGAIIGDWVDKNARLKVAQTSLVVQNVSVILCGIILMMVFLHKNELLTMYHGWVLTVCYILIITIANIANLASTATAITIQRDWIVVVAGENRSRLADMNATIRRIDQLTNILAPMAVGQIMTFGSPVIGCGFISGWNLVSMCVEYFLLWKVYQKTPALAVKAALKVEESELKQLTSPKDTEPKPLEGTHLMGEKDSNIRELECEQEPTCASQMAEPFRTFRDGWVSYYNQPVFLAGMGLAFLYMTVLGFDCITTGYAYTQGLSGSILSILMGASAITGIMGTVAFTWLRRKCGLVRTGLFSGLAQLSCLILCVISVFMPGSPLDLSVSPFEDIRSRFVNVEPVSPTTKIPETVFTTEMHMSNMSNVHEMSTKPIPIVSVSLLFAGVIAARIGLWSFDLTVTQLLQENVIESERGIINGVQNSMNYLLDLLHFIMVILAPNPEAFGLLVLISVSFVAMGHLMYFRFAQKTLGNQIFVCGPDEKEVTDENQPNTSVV
Briefly: Flow cytometry of ferroportin-GFP internalization and degradation in ECR293/Fpn-GFP cells. The class given is cell-based. To be noted: concentration eliciting 50% of maximal loss of fluorescence generated by reference Hep25; 24 hours; read-out: EC50 (the source's name). How it is done:
In vitro activity may be measured by the dose-dependent loss of fluorescence of cells engineered to display ferroportin fused to green fluorescent protein as in Nemeth et al. (2006) Blood 107:328-33. […]
FLOW CYTOMETRY. The activity of peptides of the present invention was measured by flow cytometry as previously described. See Nemeth et al. (2006) Blood 107:328-333, which is herein incorporated by reference. ECR293/Fpn-GFP, a cell line stably transfected with a ponasterone-inducible ferroportin construct tagged at the C-terminus with green fluorescent protein was used. See Nemeth et al. (2004) Science 306:2090-2093, which is herein incorporated by reference. Briefly, the cells were plated on poly-D-lysine coated plates in the presence of 20 μM FAC, with or without 10 μM ponasterone. After 24 hours, ponasterone was washed off, and cells were treated with peptides for 24 hours. Cells were then trypsinized and resuspended at 1×10^6 cells/ml, and the intensity of green fluorescence was analyzed by flow cytometry. […] Cells not induced with ponasterone to express Fpn-GFP were used to establish a gate to exclude background fluorescence. Cells induced with ponasterone, but not treated with any peptides, were used as the positive control. Each peptide was tested over the range of concentrations (0, 0.01, 0.03, 0.1, 0.3, 1, 3 and 10 μM). Each peptide treatment was repeated independently 3 to 6 times.

Turning to `CCCCCCCCCCCCCCCC(=O)NC[C@H](NC(=O)CCCCCCCCCCCCCCC)C(=O)NCCOCCOCCOCCOCCOCCOCCOCCOCCOCCOCCOCCOCCC(=O)N[C@H](Cc1ccccc1)C(=O)N[C@@H](C(=O)N[C@H](CS)C(=O)N[C@@H](C(=O)N1CCC[C@@H]1C(=O)N[C@H](Cc1ccccc1)C(=O)N[C@H](Cc1c[nH]cn1)C(=O)N[C@@H](C(=O)N[C@H](CC(=O)O)C(N)=O)[C@H](C)O)[C@H](C)CC)[C@H](C)CC` [Pr28] (Palmitoyl-[Dap](Palmitoyl)[PEG12][dF][dI][dC][dI][dP][dF][dH][dT][dD]-NH2), the serum iron result in assay [1] (20 nmoles in liposomal solution) is recorded as “lesser ability to decrease serum iron than Pr27”.

`CC[C@@H](C)[C@@H](NC(=O)[C@H](N)Cc1ccccc1)C(=O)N[C@H](CS)C(=O)N[C@@H](C(=O)N1CCC[C@@H]1C(=O)N[C@H](Cc1ccccc1)C(=O)N[C@H](Cc1c[nH]cn1)C(N)=O)[C@H](C)CC` [riHep7ΔDT] (H-[dF][dI][dC][dI][dP][dF][dH]-NH2; N-terminus assumed): the DC50 in assay [2] amounted to 150 nM. The figures for the serum iron result in assay [1] (20 nmoles in PBS) and in assay [1] (200 nmoles in PBS) were “slightly but not significantly reduced serum iron concentrations” and “serum iron concentrations significantly lower than those achieved after injection of PBS”, respectively. On to `CC[C@@H](C)[C@@H](NC(=O)[C@H](N)Cc1ccccc1)C(=O)N[C@H](CS)C(=O)N[C@@H](C(=O)N1CCC[C@@H]1C(=O)N[C@H](Cc1ccccc1)C(=O)N[C@H](Cc1c[nH]cn1)C(=O)N[C@@H](C(=O)N[C@H](CC(=O)O)C(N)=O)[C@H](C)O)[C@H](C)CC` [Pr12], for which the DC50 in assay [2] came out at 900 nM. The serum iron result in assay [1] (50 μg per mouse in PBS, vs PBS) is recorded as “significant decrease in serum iron after 4 hours”. As for `CC[C@H](C)[C@H](NC(=O)[C@H](CS)NC(=O)[C@@H](NC(=O)[C@@H]1CCCN1C(=O)[C@H](Cc1ccccc1)NC(=O)[C@H](Cc1c[nH]cn1)NC(=O)[C@@H](NC(=O)[C@@H](N)CC(=O)O)[C@@H](C)O)[C@@H](C)CC)C(=O)N[C@@H](Cc1ccccc1)C(N)=O` [Hep9], the serum iron entry in assay [1] (50 μg per mouse in PBS, vs PBS) is “did not result in a serum iron decrease”.
